# Biological target: Mitogen-activated protein kinase 1 (Homo sapiens, UniProt P28482)
# Assay: Radiological Kinase Inhibition Assay
# Details: pH 7.5; 22 °C
# Method: Kinase activity was assayed for autophosphorylation and phosphorylation of MBP with radio-labeled gamma-32P. IC50 values were calculated from binding curves using LSW Data Analysis Tool Box version 1.1.1 in MicroSoft Excel.
# Chain of Mitogen-activated protein kinase 1 (P28482 whole entry): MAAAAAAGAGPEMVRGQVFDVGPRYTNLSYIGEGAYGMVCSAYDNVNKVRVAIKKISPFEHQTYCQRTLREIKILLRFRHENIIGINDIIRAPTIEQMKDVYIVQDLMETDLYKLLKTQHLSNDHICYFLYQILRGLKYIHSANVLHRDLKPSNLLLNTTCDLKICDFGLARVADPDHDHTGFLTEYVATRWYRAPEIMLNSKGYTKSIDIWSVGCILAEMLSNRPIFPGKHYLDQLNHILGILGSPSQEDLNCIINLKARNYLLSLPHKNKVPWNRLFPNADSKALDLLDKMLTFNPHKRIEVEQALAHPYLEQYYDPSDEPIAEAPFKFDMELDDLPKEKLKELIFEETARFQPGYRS
row,SMILES,IC50
1,"O=C1NC(=O)C(=Cc2ccc(Sc3ccc(Cl)cc3)c([N+](=O)[O-])c2)C(=O)N1 [5-({4-[(4-chlorophenyl)sulfanyl]-3-nitrophenyl}methylidene)pyrimidine-2,4,6(1H,3H,5H)-trione]",53 µM
2,"O=C1c2ccccc2C(=O)c2cc(S(=O)(=O)Nc3cccc([N+](=O)[O-])c3)ccc21 [N-(3-nitrophenyl)-9,10-dioxo-9,10-dihydroanthracene-2-sulfonamide]",> 200 µM

# — BindingDB's records for doi:10.1021/jm070645a (Rockefeller University, 2007)
